Experimental data taken from article PMC12610573, “New Chlormequat-Based Ionic Liquids as Plant Resistance Inducers” (Molecules, 2025).

Tests used:
[1] = test system: Tobamovirus tabaci (tobacco mosaic virus, TMV) on Nicotiana tabacum cv. Xanthi; test: SAR induction assay: necrotic area after TMV inoculation of sprayed tobacco; assay type: in vivo; conditions: for SAR Induction (percentage of necrotic area on leaves): TMV inoculation after 7 days, read 7 days later, UTC 34.54; for Percentage of necrotic spot coverage (leaf shown in supplementary figure): single leaf image; for pest or weed control at 125 µg/mL / pest or weed control at 250 µg/mL: topical, compared with untreated control plants, read-out: Reduction in Necrotic Area
Description: Plants of Nicotiana tabacum cv. Xanthi were grown under greenhouse conditions at 25 °C and 50% relative humidity, under natural daylight during the May–August growing season, with a natural photoperiod. The plants were sprayed with solutions containing the tested compounds.
In all experiments, the TMV SL-1 isolate Tobamovirus (TMV) was used. To obtain a viral inoculum, Nicotiana tabacum cv. Samsun plants were sap-inoculated with previously virus-infected plant material. After the appearance of disease symptoms on the infected plants (leaf mosaic), the virus was isolated by sucrose density gradient centrifugation with 0.01 M Tris-HCl, pH 7.0, to prepare the infectious inoculum. The concentration of virus in the obtained preparation was determined spectrophotometrically. The samples of TMV were stored at −20 °C until use.
The tested active substances at a given concentration were sprayed on tobacco plants with three fully developed leaves. The volume of working solution used was equal to 10 mL per plant. The compounds were dissolved in a water/propylene glycol solution (95/5, v/v). The plants of the untreated control variant were sprayed with a water/propylene glycol solution (95/5, v/v) that was used for the preparation of solutions of the tested compounds. After seven days, the plants were mechanically inoculated using purified viral preparations (0.01 ng/mL as described in [34]).
The plants were inoculated with the TMV inoculum at a concentration of 3.8 × 10^−4 ng per leaf. For each variant of treatment, 3 plants were sprayed, and 3 leaves of each plant were analyzed. The entire experiment was performed in 2 replicates. Necrotic areas on the leaves were determined using ImageJ software.
The surface of a leaf or an area with necrotic spots is represented by a set of pixels in the image, which are counted by the program. Reduction in necrotic area (ISAR) is expressed by the following formula:(1) ISAR=100−(At/Ac∗100) where At is the ratio of the area of necrotic spots caused by viral infection that appeared on the leaf treated with the test substance to the whole area of the leaf; Ac is the ratio of the area of the necrotic spots caused by viral infection that appeared on the leaf of the control plant to the whole area of the leaf.
(§1) Statistical significance of the effect of the treatments of plants with tested compounds on the phytotoxicity and SAR induction was assessed with the ANOVA test performed using the Statistica program StatSoft with software version 9.1 (StatSoft Sp. z o.o., Kraków, Poland). The statistical assumptions of normality and homogeneity of variances were verified prior to conducting the ANOVA tests. Differences between the means were estimated with Tukey’s HSD test at the significance level of p = 0.05.

[2] = test system: radish (Raphanus sativus) sprouts; test: Phytotoxicity test on radish sprouts; assay type: in vivo; conditions: for Reduction in Sprout Mass: compared with untreated control; for Mass of 25 Sprouts: radish, 5 days, UTC 3.09 g
Description: Twenty five seeds of radish (Raphanus sativus) were placed on a filter tissue in a Petri dish. […] Then, sprouts were weighted. All variants of treatment were tested together, with 3 replications (plates) in each of 2 cycles performed. Results were subjected to statistical analysis as described in Section 4.8.
as §1

| SMILES | SAR Induction (percentage of necrotic area on leaves) ([1]; 125 mg/L spray) | Percentage of necrotic spot coverage (leaf shown in supplementary figure) ([1]; 125 mg/L) [%] | SAR Induction (percentage of necrotic area on leaves) ([1]; 250 mg/L spray) | Percentage of necrotic spot coverage (leaf shown in supplementary figure) ([1]; 250 mg/L) [%] | pest or weed control at 125 µg/mL ([1]; 125 mg/L) [%] | pest or weed control at 250 µg/mL ([1]; 250 mg/L) [%] | Reduction in Sprout Mass ([2]; 125 mg/L) [%] | Mass of 25 Sprouts ([2]; 125 mg/L) | Reduction in Sprout Mass ([2]; 250 mg/L) [%] | Mass of 25 Sprouts ([2]; 250 mg/L) |
| --- | --- | --- | --- | --- | --- | --- | --- | --- | --- | --- |
| O=C(O)c1ccccc1O [Salicylic acid] | 26.60 fg C % | 23.67 | 25.06 g C % | 19.86 | 23 | 27.4 | 29.77 | 2.17 cd B g | 63.27 | 1.14 bc A g |
| O=C(O)c1ccncc1 [Isonicotinic acid] | 31.12 gh B % |  | 25.58 g A % |  | 9.9 | 26 | 29.07 | 2.19 cde B g | 42.83 | 1.77 e A g |
| O=C(O)c1cc(Cl)cc(Cl)c1O [3,5-dichlorosalicylic acid] | 15.03 cd B % |  | 7.51 bcd A % |  | 56.5 | 78.3 | 32.96 | 2.07 bcd B g | 59.49 | 1.25 cd A g |
| O=C(O)c1cccnc1 [Nicotinic acid] | 27.69 fg C % |  | 22.07 g B % |  | 19.8 | 36.1 | 10.79 | 2.76 gh B |  | 2.63 j AB g |
| O=C(O)c1cc(Cl)nc(Cl)c1 [2,6-dichloroisonicotinic acid] | 18.15 cd B % |  | 14.90 f AB % |  | 47.5 | 56.9 | 40.29 | 1.85 ab B g | 54.31 | 1.41 d A g |
| O=C(O)c1ccc(Cl)cc1O [4-chlorosalicylic acid] | 17.06 cd C % |  | 8.68 cde AB % |  | 50.6 | 74.9 | 46.55 | 1.65 a B g | 68.45 | 0.98 ab A g |
| O=C(O)c1cccc(Cl)c1O [3-chlorosalicylic acid] | 4.95 a B % | 2.62 | 2.59 a AB % | 2.30 | 85.7 | 92.5 | 47.03 | 1.64 a B g | 72.65 | 0.85 a A g |
| O=C(O)c1cc(Cl)ccc1O [5-chlorosalicylic acid] | 4.23 a B % | 2.98 | 3.28 ab AB % | 1.28 | 87.8 | 90.5 | 37.16 | 1.94 abc B g | 59.87 | 1.24 cd A g |
